From PubChem BioAssay (NCI)
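48-hour exposure; five concentrations; linearly interpolated endpoints. TGI denotes the concentration required for complete inhibition of growth.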

Columns and labels:
Experiment in all cases: NCI-60 cell line screen, 48 h
HCC-2998 colon = tested on: HCC-2998 colon
COLO 205 colon = tested on: COLO 205 colon
T-47D breast = tested on: T-47D breast
OVCAR-5 ovarian = tested on: OVCAR-5 ovarian
UACC-62 melanoma = tested on: UACC-62 melanoma
HCT-116 colon = tested on: HCT-116 colon
CCRF-CEM leukemia = tested on: CCRF-CEM leukemia
SW-620 colon = tested on: SW-620 colon
OVCAR-8 ovarian = tested on: OVCAR-8 ovarian
SK-MEL-5 melanoma = tested on: SK-MEL-5 melanoma
KM12 colon = tested on: KM12 colon
A498 renal = tested on: A498 renal
ACHN renal = tested on: ACHN renal
SNB-19 CNS = tested on: SNB-19 CNS
DU-145 prostate = tested on: DU-145 prostate
MOLT-4 leukemia = tested on: MOLT-4 leukemia
SF-539 CNS = tested on: SF-539 CNS
U251 CNS = tested on: U251 CNS
RXF 393 renal = tested on: RXF 393 renal
UACC-257 melanoma = tested on: UACC-257 melanoma
NCI-H460 lung = tested on: NCI-H460 lung
UO-31 renal = tested on: UO-31 renal
NCI/ADR-RES ovarian = tested on: NCI/ADR-RES ovarian
MDA-MB-435 = tested on: MDA-MB-435
M14 melanoma = tested on: M14 melanoma
PC-3 prostate = tested on: PC-3 prostate
HOP-92 NSCLC = tested on: HOP-92 NSCLC
HCT-15 colon = tested on: HCT-15 colon
NCI-H23 lung = tested on: NCI-H23 lung
IGROV1 ovarian = tested on: IGROV1 ovarian
TK-10 renal = tested on: TK-10 renal
BT-549 breast = tested on: BT-549 breast
HT29 colon = tested on: HT29 colon
SK-MEL-2 melanoma = tested on: SK-MEL-2 melanoma
NCI-H522 lung = tested on: NCI-H522 lung
K-562 leukemia = tested on: K-562 leukemia
HL-60(TB) leukemia = tested on: HL-60(TB) leukemia
A549 NSCLC = tested on: A549 NSCLC
MDA-MB-231 breast = tested on: MDA-MB-231 breast
786-0 renal = tested on: 786-0 renal
SF-268 CNS = tested on: SF-268 CNS
CAKI-1 renal = tested on: CAKI-1 renal
OVCAR-4 ovarian = tested on: OVCAR-4 ovarian
NCI-H226 lung = tested on: NCI-H226 lung
HOP-62 NSCLC = tested on: HOP-62 NSCLC
LOX IMVI melanoma = tested on: LOX IMVI melanoma
SF-295 CNS = tested on: SF-295 CNS
EKVX NSCLC = tested on: EKVX NSCLC
RPMI-8226 leukemia = tested on: RPMI-8226 leukemia
SN12C renal = tested on: SN12C renal
SK-MEL-28 melanoma = tested on: SK-MEL-28 melanoma
MALME-3M melanoma = tested on: MALME-3M melanoma
OVCAR-3 ovarian = tested on: OVCAR-3 ovarian
MCF7 breast = tested on: MCF7 breast
HS 578T breast = tested on: HS 578T breast
SR leukemia = tested on: SR leukemia
SK-OV-3 ovarian = tested on: SK-OV-3 ovarian
SNB-75 CNS = tested on: SNB-75 CNS

## CCOC(=O)C1=C(C)N(Cc2ccccc2)C2(O)C(OC)CC(=O)C3C(=O)N(c4ccccc4)C(=O)C132 (centres undefined)
HCC-2998 colon
  TGI: 53.5 µM
COLO 205 colon
  TGI: > 100 µM
T-47D breast
  TGI: 30.5 µM
OVCAR-5 ovarian
  TGI: > 100 µM
UACC-62 melanoma
  TGI: 21.6 µM
HCT-116 colon
  TGI: > 100 µM
CCRF-CEM leukemia
  TGI: > 100 µM
SW-620 colon
  TGI: > 100 µM
OVCAR-8 ovarian
  TGI: 31.9 µM
SK-MEL-5 melanoma
  TGI: 37.1 µM
KM12 colon
  TGI: 55.6 µM
A498 renal
  TGI: 50.6 µM
ACHN renal
  TGI: 48.4 µM
SNB-19 CNS
  TGI: 37.6 µM
DU-145 prostate
  TGI: 15.1 µM
MOLT-4 leukemia
  TGI: 81.6 µM
SF-539 CNS
  TGI: 48.6 µM
U251 CNS
  TGI: > 100 µM
RXF 393 renal
  TGI: 94.1 µM
UACC-257 melanoma
  TGI: 37.7 µM
NCI-H460 lung
  TGI: > 100 µM
UO-31 renal
  TGI: 33 µM
NCI/ADR-RES ovarian
  TGI: > 100 µM
MDA-MB-435
  TGI: > 100 µM
M14 melanoma
  TGI: > 100 µM
PC-3 prostate
  TGI: 50.8 µM
HOP-92 NSCLC
  TGI: 44.5 µM
HCT-15 colon
  TGI: > 100 µM
NCI-H23 lung
  TGI: > 100 µM
IGROV1 ovarian
  TGI: 37.6 µM
TK-10 renal
  TGI: 53 µM
BT-549 breast
  TGI: 24.3 µM
HT29 colon
  TGI: 23.9 µM
SK-MEL-2 melanoma
  TGI: 59.1 µM
NCI-H522 lung
  TGI: 26.3 µM
K-562 leukemia
  TGI: > 100 µM
HL-60(TB) leukemia
  TGI: > 100 µM
A549 NSCLC
  TGI: > 100 µM
MDA-MB-231 breast
  TGI: 77.2 µM
786-0 renal
  TGI: > 100 µM
SF-268 CNS
  TGI: > 100 µM
CAKI-1 renal
  TGI: 64.8 µM
OVCAR-4 ovarian
  TGI: 18.4 µM
NCI-H226 lung
  TGI: 37.5 µM
HOP-62 NSCLC
  TGI: > 100 µM
LOX IMVI melanoma
  TGI: > 100 µM
SF-295 CNS
  TGI: 47.5 µM
EKVX NSCLC
  TGI: 60 µM
RPMI-8226 leukemia
  TGI: > 100 µM
SN12C renal
  TGI: 41.5 µM
SK-MEL-28 melanoma
  TGI: 23.3 µM
MALME-3M melanoma
  TGI: 36.7 µM
OVCAR-3 ovarian
  TGI: > 100 µM
MCF7 breast
  TGI: 34.5 µM
HS 578T breast
  TGI: > 100 µM
SR leukemia
  TGI: 86.8 µM

## O=C(Cn1c(=O)oc2ccc(C(=O)c3cccc(Cl)c3)cc21)c1ccccc1
HCC-2998 colon
  TGI: 78.6 µM
COLO 205 colon
  TGI: > 100 µM
T-47D breast
  TGI: > 100 µM
OVCAR-5 ovarian
  TGI: > 100 µM
UACC-62 melanoma
  TGI: > 100 µM
CCRF-CEM leukemia
  TGI: > 100 µM
SW-620 colon
  TGI: > 100 µM
OVCAR-8 ovarian
  TGI: > 100 µM
SK-MEL-5 melanoma
  TGI: > 100 µM
A498 renal
  TGI: 95.8 µM
ACHN renal
  TGI: > 100 µM
DU-145 prostate
  TGI: > 100 µM
MOLT-4 leukemia
  TGI: > 100 µM
SF-539 CNS
  TGI: > 100 µM
U251 CNS
  TGI: > 100 µM
UACC-257 melanoma
  TGI: > 100 µM
NCI-H460 lung
  TGI: > 100 µM
UO-31 renal
  TGI: > 100 µM
NCI/ADR-RES ovarian
  TGI: > 100 µM
MDA-MB-435
  TGI: > 100 µM
M14 melanoma
  TGI: > 100 µM
PC-3 prostate
  TGI: > 100 µM
HOP-92 NSCLC
  TGI: > 100 µM
HCT-15 colon
  TGI: > 100 µM
NCI-H23 lung
  TGI: > 100 µM
IGROV1 ovarian
  TGI: > 100 µM
TK-10 renal
  TGI: > 100 µM
SK-OV-3 ovarian
  TGI: > 100 µM
BT-549 breast
  TGI: > 100 µM
HT29 colon
  TGI: > 100 µM
SK-MEL-2 melanoma
  TGI: > 100 µM
NCI-H522 lung
  TGI: > 100 µM
K-562 leukemia
  TGI: > 100 µM
HL-60(TB) leukemia
  TGI: > 100 µM
A549 NSCLC
  TGI: > 100 µM
MDA-MB-231 breast
  TGI: > 100 µM
SF-268 CNS
  TGI: > 100 µM
CAKI-1 renal
  TGI: > 100 µM
OVCAR-4 ovarian
  TGI: > 100 µM
NCI-H226 lung
  TGI: > 100 µM
HOP-62 NSCLC
  TGI: > 100 µM
LOX IMVI melanoma
  TGI: > 100 µM
SF-295 CNS
  TGI: > 100 µM
EKVX NSCLC
  TGI: > 100 µM
SNB-75 CNS
  TGI: > 100 µM
RPMI-8226 leukemia
  TGI: > 100 µM
SN12C renal
  TGI: > 100 µM
SK-MEL-28 melanoma
  TGI: > 100 µM
MALME-3M melanoma
  TGI: > 100 µM
OVCAR-3 ovarian
  TGI: > 100 µM
MCF7 breast
  TGI: > 100 µM
HS 578T breast
  TGI: > 100 µM
SR leukemia
  TGI: > 100 µM
